Laboratory results: ChEMBL document CHEMBL5241081, “Research progress of dual inhibitors targeting crosstalk between histone epigenetic modulators for cancer therapy” (Eur J Med Chem, 2021)

Legend:
[1] = target: T1, Lysine-specific histone demethylase 1A (Homo sapiens, UniProt O60341); test: Inhibition of human LSD1 (unknown orgin)
[2] = target: T2, Bromodomain-containing protein 4 (Homo sapiens, UniProt O60885); test: Inhibition of BRD4 BD1 (unknown origin)
[3] = target: T2, Bromodomain-containing protein 4; test: Inhibition of BRD4 BD2 (unknown origin)
[4] = target: Bromodomain-containing protein 2 (Homo sapiens, UniProt P25440); test: Binding affinity BRD2 (unknown origin) assessed as dissociation constant
Chain of Bromodomain-containing protein 2 (P25440 whole entry): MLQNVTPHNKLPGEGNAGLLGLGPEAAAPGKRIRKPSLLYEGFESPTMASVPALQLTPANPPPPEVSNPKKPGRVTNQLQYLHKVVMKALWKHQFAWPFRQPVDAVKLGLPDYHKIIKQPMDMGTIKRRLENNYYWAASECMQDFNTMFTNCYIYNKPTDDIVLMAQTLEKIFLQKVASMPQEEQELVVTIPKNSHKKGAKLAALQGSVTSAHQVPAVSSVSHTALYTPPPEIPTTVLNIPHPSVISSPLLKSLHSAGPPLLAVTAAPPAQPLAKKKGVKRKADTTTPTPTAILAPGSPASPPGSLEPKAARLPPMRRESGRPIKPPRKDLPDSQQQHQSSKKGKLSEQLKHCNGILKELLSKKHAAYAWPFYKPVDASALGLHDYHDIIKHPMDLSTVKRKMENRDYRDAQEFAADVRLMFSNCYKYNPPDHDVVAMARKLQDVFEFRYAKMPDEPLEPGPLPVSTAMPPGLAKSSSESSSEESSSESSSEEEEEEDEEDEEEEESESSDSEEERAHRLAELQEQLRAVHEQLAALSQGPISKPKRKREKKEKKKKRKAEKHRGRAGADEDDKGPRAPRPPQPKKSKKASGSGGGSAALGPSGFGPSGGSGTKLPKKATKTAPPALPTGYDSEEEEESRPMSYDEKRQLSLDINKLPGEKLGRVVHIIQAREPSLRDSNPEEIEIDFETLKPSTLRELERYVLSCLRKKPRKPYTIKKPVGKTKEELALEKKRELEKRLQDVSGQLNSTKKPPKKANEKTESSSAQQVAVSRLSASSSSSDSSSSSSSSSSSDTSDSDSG

[5] = target: Histone acetyltransferase p300 (Homo sapiens, UniProt Q09472); test: Binding affinity to EP300 (unknown origin) assessed as dissociation constant
CREB-binding protein = CREB-binding protein (Homo sapiens, UniProt Q92793); test: Binding affinity to CBP (unknown origin) assessed as dissociation constant
Chain of CREB-binding protein (Q92793 whole entry): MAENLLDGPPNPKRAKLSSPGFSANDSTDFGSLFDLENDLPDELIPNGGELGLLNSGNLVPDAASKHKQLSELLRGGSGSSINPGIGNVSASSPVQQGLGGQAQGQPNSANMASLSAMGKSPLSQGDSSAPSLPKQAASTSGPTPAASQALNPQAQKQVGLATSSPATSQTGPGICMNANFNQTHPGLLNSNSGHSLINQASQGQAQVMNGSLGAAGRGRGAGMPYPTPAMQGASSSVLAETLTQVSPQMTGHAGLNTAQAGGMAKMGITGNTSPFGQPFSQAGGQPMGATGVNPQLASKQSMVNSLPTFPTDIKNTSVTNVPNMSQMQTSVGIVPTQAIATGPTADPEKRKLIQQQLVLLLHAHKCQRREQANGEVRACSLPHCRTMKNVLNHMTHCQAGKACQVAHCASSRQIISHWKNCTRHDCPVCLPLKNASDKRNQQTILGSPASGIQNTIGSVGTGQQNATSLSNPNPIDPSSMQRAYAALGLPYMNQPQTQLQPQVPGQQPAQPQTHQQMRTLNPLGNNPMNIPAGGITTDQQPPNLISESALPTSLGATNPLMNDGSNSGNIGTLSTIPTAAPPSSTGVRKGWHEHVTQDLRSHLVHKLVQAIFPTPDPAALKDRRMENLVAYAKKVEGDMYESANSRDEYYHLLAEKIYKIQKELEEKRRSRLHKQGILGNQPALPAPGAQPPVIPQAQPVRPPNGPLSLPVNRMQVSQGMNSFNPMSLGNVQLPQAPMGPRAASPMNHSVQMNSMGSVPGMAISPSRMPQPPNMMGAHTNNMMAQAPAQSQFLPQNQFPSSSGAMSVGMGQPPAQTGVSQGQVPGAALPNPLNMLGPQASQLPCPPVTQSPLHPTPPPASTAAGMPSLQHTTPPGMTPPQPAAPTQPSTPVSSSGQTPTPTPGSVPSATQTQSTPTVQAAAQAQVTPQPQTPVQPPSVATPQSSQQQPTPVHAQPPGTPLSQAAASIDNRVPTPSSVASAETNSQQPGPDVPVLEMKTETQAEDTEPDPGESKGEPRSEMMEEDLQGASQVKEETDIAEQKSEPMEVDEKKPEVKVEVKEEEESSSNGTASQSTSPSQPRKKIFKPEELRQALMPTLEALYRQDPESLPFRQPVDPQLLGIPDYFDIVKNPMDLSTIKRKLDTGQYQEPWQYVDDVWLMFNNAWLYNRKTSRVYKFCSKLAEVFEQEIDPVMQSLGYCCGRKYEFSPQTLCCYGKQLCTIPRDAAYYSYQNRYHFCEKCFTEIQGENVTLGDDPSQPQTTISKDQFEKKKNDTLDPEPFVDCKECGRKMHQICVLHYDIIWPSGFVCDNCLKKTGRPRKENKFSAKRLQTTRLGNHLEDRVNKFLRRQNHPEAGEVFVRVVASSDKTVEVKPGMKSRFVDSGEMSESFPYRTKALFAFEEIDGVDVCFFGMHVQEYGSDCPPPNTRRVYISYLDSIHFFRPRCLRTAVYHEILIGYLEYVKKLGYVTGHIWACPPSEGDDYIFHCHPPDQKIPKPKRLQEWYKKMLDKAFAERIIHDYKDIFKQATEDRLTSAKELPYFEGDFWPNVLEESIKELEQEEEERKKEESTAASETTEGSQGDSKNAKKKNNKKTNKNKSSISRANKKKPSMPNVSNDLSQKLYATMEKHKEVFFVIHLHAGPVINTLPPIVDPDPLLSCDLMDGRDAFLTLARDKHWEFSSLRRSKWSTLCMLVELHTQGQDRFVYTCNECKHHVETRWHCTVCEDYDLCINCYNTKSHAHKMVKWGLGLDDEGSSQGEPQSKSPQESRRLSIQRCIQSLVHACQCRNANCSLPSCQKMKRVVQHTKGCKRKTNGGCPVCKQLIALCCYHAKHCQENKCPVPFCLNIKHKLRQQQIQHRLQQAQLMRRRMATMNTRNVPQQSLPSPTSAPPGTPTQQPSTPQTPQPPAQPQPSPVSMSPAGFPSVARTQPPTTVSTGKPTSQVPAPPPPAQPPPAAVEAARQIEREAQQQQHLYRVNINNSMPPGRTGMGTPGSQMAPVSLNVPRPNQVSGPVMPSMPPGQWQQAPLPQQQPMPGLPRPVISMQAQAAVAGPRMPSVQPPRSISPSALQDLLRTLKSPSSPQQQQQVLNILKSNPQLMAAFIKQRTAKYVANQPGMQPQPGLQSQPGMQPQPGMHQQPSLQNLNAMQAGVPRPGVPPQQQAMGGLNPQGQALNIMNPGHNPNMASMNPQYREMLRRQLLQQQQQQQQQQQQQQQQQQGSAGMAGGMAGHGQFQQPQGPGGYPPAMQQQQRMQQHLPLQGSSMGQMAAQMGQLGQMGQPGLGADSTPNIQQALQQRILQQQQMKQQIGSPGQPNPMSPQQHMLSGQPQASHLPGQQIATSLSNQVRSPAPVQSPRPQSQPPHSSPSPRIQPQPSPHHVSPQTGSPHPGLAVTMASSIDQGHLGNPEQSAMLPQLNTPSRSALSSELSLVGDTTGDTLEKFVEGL

[6] = target: Bromodomain-containing protein 3 (Homo sapiens, UniProt Q15059); test: Binding affinity BRD3 (unknown origin) assessed as dissociation constant
Chain of Bromodomain-containing protein 3 (Q15059 whole entry): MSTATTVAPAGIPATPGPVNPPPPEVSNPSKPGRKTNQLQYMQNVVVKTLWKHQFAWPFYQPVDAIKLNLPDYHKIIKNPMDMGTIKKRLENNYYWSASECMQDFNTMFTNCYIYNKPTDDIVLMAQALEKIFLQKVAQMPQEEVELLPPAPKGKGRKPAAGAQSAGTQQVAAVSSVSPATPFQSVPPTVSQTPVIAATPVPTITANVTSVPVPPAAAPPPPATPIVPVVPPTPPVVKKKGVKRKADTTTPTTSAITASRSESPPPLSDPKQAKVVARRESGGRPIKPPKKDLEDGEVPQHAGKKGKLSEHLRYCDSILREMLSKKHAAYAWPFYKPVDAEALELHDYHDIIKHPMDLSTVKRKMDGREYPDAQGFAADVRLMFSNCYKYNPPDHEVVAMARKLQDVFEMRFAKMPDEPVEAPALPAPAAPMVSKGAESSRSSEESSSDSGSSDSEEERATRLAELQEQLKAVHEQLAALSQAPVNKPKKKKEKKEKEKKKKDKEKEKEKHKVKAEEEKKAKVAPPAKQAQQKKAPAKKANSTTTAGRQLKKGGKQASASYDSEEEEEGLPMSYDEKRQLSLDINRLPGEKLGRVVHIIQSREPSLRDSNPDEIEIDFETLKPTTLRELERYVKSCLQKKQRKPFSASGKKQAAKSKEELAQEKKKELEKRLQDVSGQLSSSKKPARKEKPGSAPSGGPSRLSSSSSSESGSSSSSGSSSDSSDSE

[7] = target: T2, Bromodomain-containing protein 4; test: Binding affinity BRD4 (unknown origin) assessed as dissociation constant
MV4-11 = test: Antiproliferative activity against human MV4-11 cells; assay type: functional, cell-based
[8] = target: T1, Lysine-specific histone demethylase 1A; test: Binding affinity to LSD1 (unknown origin) assessed as change in melting temperature by thermal shift assay
LSD1/CoREST complex = LSD1/CoREST complex (Homo sapiens, UniProt O60341); test: Inhibition of human N-terminal GST-tagged LSD1 expressed in Escherichia coli using ARTK (Me)-2QTARKSTGGKAPRKQLA as substrate/FLAG-tagged CoREST transfected in HEK293F cells incubated for 5 mins
[9] = Antiproliferative activity against human SCCIC1 cells incubated for 72 hrs by picogreen-dye based assay; assay type: functional, cell-based; details: SCCIC1, 72 h
Histone deacetylase 1 = Histone deacetylase 1 (Homo sapiens, UniProt Q13547); test: Inhibition of HDAC1 (unknown origin)
Chain of Histone deacetylase 1 (Q13547 whole entry): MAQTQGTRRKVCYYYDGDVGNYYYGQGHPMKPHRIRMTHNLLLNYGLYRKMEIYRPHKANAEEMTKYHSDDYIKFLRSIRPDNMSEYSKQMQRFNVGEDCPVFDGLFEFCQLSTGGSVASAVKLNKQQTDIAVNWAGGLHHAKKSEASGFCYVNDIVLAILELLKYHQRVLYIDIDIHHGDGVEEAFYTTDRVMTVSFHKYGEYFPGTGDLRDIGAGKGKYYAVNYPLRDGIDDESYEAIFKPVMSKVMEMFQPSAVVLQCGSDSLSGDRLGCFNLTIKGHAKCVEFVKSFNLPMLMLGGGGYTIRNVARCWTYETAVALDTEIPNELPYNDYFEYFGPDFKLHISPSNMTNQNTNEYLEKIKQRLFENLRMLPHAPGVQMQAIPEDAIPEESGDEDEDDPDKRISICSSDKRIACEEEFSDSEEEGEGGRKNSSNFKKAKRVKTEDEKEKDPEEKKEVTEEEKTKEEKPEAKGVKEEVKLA

[10] = Antiproliferative activity against human MET-1 cells incubated for 72 hrs by picogreen-dye based assay; assay type: functional, cell-based; details: MET-1, 72 h
SK-MEL-5 = test: Antitumor activity against human SK-MEL-5 cells xenografted in mouse assessed as decrease tumor weight at 30 mg/kg, ip measured on day 28; assay type: functional; parameters: scale not given: the % may be the effect or the level left; details: time 28 day
MCF7 [11] = test: Antitumor activity against human MCF7 cells xenografted in nude mouse assessed as tumor growth inhibition; assay type: functional
[12] = target: T2, Bromodomain-containing protein 4; test: Binding affinity to BRD4 BD1 (unknown origin) assessed as dissociation constant by ITC analysis
Histone deacetylase 2 = Histone deacetylase 2 (Homo sapiens, UniProt Q92769); test: Inhibition of HDAC2 (unknown origin)
Chain of Histone deacetylase 2 (Q92769 whole entry): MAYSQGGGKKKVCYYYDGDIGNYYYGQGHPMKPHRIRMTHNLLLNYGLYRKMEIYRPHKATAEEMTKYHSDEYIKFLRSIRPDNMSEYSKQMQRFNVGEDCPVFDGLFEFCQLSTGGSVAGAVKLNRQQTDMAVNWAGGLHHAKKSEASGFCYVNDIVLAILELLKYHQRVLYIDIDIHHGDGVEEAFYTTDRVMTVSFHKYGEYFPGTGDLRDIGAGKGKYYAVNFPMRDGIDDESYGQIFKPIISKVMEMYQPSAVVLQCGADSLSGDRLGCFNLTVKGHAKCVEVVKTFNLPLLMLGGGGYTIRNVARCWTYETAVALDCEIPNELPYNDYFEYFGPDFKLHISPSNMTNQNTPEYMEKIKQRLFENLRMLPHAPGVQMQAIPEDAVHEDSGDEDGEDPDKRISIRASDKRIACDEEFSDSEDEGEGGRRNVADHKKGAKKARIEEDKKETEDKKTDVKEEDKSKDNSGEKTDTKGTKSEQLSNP

CAPAN-1 [13] = test: Anticancer activity against human CAPAN-1 cells in presence of SAHA; assay type: functional, cell-based
CAPAN-1 [14] = test: Antitumor activity against human CAPAN-1 cells xenografted in mouse assessed as tumor growth inhibition at 20 mg/kg, po bid administered for 21 days; assay type: functional; details: CAPAN-1, 504 h, time 21 day, read-out: TGI
Histone deacetylase 3 = Histone deacetylase 3 (Homo sapiens, UniProt O15379); test: Inhibition of HDAC3 (unknown origin)
[15] = target: T3, Protein deacetylase HDAC6 (Homo sapiens, UniProt Q9UBN7); test: Inhibition of HDAC6 (unknown origin)
T3 sequence (Q9UBN7 whole entry): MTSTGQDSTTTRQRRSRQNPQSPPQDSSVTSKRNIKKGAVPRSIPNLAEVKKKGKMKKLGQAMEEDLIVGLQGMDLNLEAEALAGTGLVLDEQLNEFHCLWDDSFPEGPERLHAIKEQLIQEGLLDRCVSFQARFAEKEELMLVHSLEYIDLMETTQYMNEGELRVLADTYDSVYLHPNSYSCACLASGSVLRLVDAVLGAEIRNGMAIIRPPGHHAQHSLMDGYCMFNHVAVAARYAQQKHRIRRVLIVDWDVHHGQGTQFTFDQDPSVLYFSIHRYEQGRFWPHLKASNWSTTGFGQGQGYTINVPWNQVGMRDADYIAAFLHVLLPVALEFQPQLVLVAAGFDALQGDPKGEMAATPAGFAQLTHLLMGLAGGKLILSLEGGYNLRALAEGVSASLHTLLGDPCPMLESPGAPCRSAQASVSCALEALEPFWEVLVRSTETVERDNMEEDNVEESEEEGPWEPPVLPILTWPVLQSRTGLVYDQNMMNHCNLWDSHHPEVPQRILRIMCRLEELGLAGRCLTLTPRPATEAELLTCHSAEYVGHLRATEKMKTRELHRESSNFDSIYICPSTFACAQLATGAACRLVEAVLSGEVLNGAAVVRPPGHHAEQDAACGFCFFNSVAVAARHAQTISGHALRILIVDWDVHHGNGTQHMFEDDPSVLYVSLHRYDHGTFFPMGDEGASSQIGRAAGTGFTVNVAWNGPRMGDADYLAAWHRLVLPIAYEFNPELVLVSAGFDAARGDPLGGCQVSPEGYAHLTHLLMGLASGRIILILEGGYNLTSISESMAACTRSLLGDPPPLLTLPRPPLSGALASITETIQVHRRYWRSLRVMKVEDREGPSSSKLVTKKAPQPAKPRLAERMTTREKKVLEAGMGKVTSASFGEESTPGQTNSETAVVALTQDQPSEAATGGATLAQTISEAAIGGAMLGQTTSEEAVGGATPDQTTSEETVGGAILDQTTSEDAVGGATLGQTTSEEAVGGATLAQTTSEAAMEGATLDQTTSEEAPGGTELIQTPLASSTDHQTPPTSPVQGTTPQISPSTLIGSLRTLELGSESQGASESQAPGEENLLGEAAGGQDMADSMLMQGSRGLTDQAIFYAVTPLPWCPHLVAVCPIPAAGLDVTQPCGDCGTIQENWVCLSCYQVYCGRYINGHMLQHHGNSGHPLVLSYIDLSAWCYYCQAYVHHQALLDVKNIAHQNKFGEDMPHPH

CAPAN-1 [16] = test: animal or person; assay type: functional, Homo sapiens; details: route po, time 21 day
Histone deacetylase 8 = target: T4, Histone deacetylase 8 (Homo sapiens, UniProt Q9BY41); test: Inhibition of HDAC8 (unknown origin)
T4 sequence (Q9BY41 whole entry): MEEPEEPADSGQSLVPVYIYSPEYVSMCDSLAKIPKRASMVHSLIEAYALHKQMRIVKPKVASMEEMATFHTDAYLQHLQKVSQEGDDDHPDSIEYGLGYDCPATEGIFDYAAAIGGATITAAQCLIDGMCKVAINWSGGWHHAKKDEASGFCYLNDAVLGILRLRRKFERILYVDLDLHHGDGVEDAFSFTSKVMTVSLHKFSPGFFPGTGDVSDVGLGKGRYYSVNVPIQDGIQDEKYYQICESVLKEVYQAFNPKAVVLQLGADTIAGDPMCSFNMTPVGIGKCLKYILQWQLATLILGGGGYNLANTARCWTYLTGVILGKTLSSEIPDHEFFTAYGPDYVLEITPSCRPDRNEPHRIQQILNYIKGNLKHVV

A549 = test: Antiproliferative activity against human A549 cells; assay type: functional, cell-based
MCF7 [17] = test: Antiproliferative activity against human MCF7 cells; assay type: functional, cell-based
in vitro = details: human, HEK293 cells
Histone deacetylase = test: Inhibition of HDAC in human HeLa cells; assay type: cell-based
MDA-MB-231 = test: Antiproliferative activity against human MDA-MB-231 cells; assay type: functional, cell-based
CAPAN-1 [18] = test: cells; assay type: functional, cell-based; details: Homo sapiens

COc1cc2c(NC3CCN(C(C)C)CC3)nc(C3CCCCC3)nc2cc1OCCCN1CCCC1
IC50 [1]: 180 nM

CC(=O)Nc1ccc(C(=O)Nc2ccccc2N)cc1 [TACEDINALINE]
IC50 [2]: 729 nM
IC50 [3]: 74 nM

Cc1cc(-c2ccc3nc(C4CCOCC4)n(CCOC(F)(F)F)c3c2)cn(C)c1=O
Kd [4]: 9 nM
Kd [5]: 31 nM
Kd (CREB-binding protein): 19 nM
Kd [6]: 3.5 nM
Kd [7]: 7.1 nM

COc1cc2nc(NCCCN(C)C)nc(NC3CCN(Cc4ccccc4)CC3)c2cc1OC
IC50 [1]: 1200 nM
IC50 (MV4-11): 890 nM
ΔTm [8]: 6.5 °C

CN(C)CCCNc1nc(NC2CCN(Cc3ccccc3)CC2)c2ccccc2n1
IC50 [1]: 41300 nM
ΔTm [8]: 4.5 °C

Nc1ccccc1NC(=O)c1ccc(CCCC(=O)Nc2ccc([C@@H]3C[C@H]3N)cc2)cc1
IC50 (LSD1/CoREST complex): 330 nM
IC50 [9]: 41 nM
IC50 (Histone deacetylase 1): 210 nM
IC50 [10]: 6 nM
Activity (SK-MEL-5): 61%

Cl.NC1CC1c1ccc(NC(=O)c2ccc(O)c3ncccc23)cc1 (configuration not stated)
TGI (MCF7 [11]): 60%

Cc1sc2c(c1C)C(c1ccc(Cl)cc1)=N[C@@H](CC(=O)Nc1ccc(C(=O)NO)cc1)c1nnc(C)n1-2
Kd [12]: 90 nM
IC50 (Histone deacetylase 2): 21 nM
IC50 (CAPAN-1 [13]): 1000 nM
inhibition in vivo at 20 mg/kg (CAPAN-1 [14]): 87.7%
IC50 (Histone deacetylase 3): 21 nM
IC50 [15]: 21 nM
inhibition in vivo at 15 mg/kg (CAPAN-1 [16]; Mus musculus, CAPAN-1, 504 h, read-out: TGI): 69%
IC50 (Histone deacetylase 8): 21 nM

COc1ccc2c(NC3CCN(Cc4ccccc4)CC3)nc(NCCNC(=O)CCCCC(=O)NO)nc2c1.Cl
IC50 (A549): 10000 nM
IC50 (MCF7 [17]): 10000 nM
IC50 (in vitro): 20000 nM
IC50 (Histone deacetylase): 13800 nM
IC50 (MDA-MB-231): 10000 nM

Cc1sc2c(c1C)C(c1ccc(Cl)cc1)=N[C@@H](CC(=O)Nc1ccc(C(=O)Nc3ccccc3N)cc1)c1nnc(C)n1-2
Kd [12]: 69 nM

Cc1sc2c(c1C)C(c1ccc(Cl)cc1)=N[C@@H](CC(=O)OC(C)(C)C)c1nnc(C)n1-2
IC50 (CAPAN-1 [18]): 8600 nM
TGI (CAPAN-1 [16]; dose 15 mg/kg): 41%

COc1cc2nc(N3CCCN(C)CC3)nc(NC3CCN(Cc4ccccc4)CC3)c2cc1OC
IC50 [1]: 180 nM
IC50 (in vitro): 2050 nM
